Assay results reported in patent publication US11331299B2, “Medicinal use of serrulatane diterpenes” (The University of Sydney, priority 2016, dated 2022).

Assays:
[1] = target: T1, PB1(3) (h) bromodomain (Homo sapiens, UniProt Q86U86); assay: Epigenetic binding assay, Bromodomain; details: read-out: % Inhibition of Control Specific Binding
T1 construct: Bromodomain

[2] = target: T2, CBX8 (h) chromodomain (Homo sapiens, UniProt Q9HC52); assay: Epigenetic binding assay, Chromodomain; details: read-out: % Inhibition of Control Specific Binding
T2 construct: Recognition and specificity determinants of the human cbx chromodomains; Eurofins CEREP (France), contract laboratory
T2 sequence (Q9HC52 11-69 limits assumed): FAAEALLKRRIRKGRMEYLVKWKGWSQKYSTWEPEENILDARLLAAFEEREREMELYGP

[3] = target: T3, Nicotinamide N-methyltransferase (h) (Homo sapiens, UniProt P40261); assay: Epigenetic enzyme assay, Small molecule methyltransferases; type: biochemical; details: read-out: % Inhibition of Control Values
T3 sequence (P40261 1-264): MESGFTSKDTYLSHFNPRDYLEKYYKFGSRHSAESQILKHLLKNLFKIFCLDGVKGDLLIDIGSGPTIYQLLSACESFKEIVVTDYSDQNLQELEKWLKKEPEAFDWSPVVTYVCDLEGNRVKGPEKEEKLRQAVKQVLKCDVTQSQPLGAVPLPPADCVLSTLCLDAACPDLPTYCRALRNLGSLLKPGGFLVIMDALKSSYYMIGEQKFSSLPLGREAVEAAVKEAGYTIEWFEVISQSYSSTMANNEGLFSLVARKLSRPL

[4] = test system: H3K9 ac; assay: Cell-based detection methyl modifications; details: read-out: % Inhibition of Control Values
[5] = target: Histamine N-methyltransferase (h) (Homo sapiens, UniProt P50135); assay: Epigenetic enzyme assay, Small molecule methyltransferases; type: biochemical; details: read-out: % Inhibition of Control Values
[6] = test system: HCT-8; assay: OncoPanel cell proliferation assay (10-day); type: cell-based, human; details: for EC50 / GI50 / IC50: Homo sapiens, HCT-8, Colon; for EC50: read-out: Cell Count EC50; for GI50: read-out: Cell Count GI50; for IC50: read-out: Cell Count IC50
[7] = target: T4, BRD4(1) (h) bromodomain (Homo sapiens, UniProt O60885); assay: Epigenetic binding assay, Bromodomain; details: read-out: % Inhibition of Control Specific Binding
T4 construct: Bromodomain

[8] = target: T5, Xanthine Oxidase (Bos taurus, UniProt P80457); assay: Xanthine Oxidase; type: biochemical, Bovine; details: assay year 2015, read-out: % Control Response
T5 construct: Bovine buttermilk; from tissue; host or cells: bovine buttermilk
Description: (§1) The in vitro pharmacological studies were conducted by Eurofins PanLab (Taiwan) using the parameters shown in Table 13 with respect to appropriate literature references.

[9] = target: T6, Catechol O-methyltransferase (h) (Homo sapiens, UniProt P21964); assay: Epigenetic enzyme assay, Small molecule methyltransferases; type: biochemical; details: read-out: % Inhibition of Control Values
T6 sequence (P21964 1-271): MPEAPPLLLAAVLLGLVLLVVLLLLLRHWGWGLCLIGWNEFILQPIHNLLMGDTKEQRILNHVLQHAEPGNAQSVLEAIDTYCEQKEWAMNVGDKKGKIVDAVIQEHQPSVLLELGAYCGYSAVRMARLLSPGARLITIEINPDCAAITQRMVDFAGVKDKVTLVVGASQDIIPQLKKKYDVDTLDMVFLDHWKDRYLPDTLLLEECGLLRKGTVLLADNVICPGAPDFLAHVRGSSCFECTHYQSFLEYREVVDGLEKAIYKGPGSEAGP

[10] = target: T7, EP300 (h) bromodomain (Homo sapiens, UniProt Q09472); assay: Epigenetic binding assay, Bromodomain; details: for inhibition at 10 µM: read-out: % Inhibition of Control Specific Binding
T7 construct: Bromodomain
T7 sequence (Q09472 1049-1156 limits assumed): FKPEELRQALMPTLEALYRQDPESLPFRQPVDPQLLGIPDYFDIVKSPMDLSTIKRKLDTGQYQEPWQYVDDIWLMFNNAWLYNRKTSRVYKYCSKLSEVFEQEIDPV

[11] = target: PKBbeta/AKT2(h) (substrate histone H3 full length) (Homo sapiens, UniProt P31751); assay: Epigenetic enzyme assay, Kinases; type: biochemical; details: read-out: % Inhibition of Control Values
[12] = target: T8, CBX5 (h) chromodomain (Homo sapiens, UniProt P45973); assay: Epigenetic binding assay, Chromodomain; details: read-out: % Inhibition of Control Specific Binding
T8 construct: Recognition and specificity determinants of the human cbx chromodomains; Eurofins CEREP (France), contract laboratory

[13] = target: SETDB1 (h) (Homo sapiens, UniProt Q15047); assay: Epigenetic enzyme assay, Methyltransferases (MTs); type: biochemical; details: for inhibition at 10 µM: read-out: % Inhibition of Control Values
[14] = target: T9, HDAC11 (h) (Homo sapiens, UniProt Q96DB2); assay: Epigenetic enzyme assay, Histone deacetylase (HDACs); type: biochemical; details: read-out: % Inhibition of Control Values
T9 sequence (Q96DB2 1-347): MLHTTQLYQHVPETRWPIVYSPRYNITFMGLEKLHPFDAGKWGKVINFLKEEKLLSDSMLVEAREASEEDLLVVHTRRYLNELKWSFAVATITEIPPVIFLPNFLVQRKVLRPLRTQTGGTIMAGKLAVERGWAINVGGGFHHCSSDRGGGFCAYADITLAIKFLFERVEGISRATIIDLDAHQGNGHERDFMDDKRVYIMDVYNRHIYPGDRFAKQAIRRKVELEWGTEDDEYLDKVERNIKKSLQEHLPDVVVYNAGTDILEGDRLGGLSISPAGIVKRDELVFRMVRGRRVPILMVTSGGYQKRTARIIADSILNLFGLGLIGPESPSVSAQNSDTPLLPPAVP

[15] = test system: Steroid 5alpha-Reductase; assay: Steroid 5α-Reductase; type: biochemical, Wistar Rat; details: 10 μM; assay year 2015
Description: as §1

[16] = target: PRMT3 (h) (Homo sapiens, UniProt O60678); assay: Epigenetic enzyme assay, Methyltransferases (MTs); type: biochemical; details: for inhibition at 10 µM: read-out: % Inhibition of Control Values
[17] = test system: H3K79 me2; assay: Cell-based detection methyl modifications; details: read-out: % Inhibition of Control Values

Sequence of PRMT3 (h) (O60678 whole entry): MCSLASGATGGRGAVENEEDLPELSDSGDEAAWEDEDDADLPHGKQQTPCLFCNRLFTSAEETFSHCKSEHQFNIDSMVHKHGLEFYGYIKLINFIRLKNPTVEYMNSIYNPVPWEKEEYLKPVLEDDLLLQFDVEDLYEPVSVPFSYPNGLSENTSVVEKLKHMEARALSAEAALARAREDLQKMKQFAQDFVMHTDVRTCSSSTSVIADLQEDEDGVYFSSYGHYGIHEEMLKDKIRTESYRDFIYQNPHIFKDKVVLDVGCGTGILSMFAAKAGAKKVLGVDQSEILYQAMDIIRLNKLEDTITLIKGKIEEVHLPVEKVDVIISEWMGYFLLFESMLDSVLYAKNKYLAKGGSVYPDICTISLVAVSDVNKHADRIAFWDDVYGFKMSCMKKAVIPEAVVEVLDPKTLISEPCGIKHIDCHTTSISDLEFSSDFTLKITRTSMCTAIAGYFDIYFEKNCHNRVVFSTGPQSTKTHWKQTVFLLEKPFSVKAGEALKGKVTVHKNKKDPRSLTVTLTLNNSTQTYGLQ
T8 sequence (P45973 20-78 limits assumed): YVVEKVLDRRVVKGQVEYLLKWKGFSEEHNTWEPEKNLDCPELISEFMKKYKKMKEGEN
T1 sequence (Q86U86 381-487 limits assumed): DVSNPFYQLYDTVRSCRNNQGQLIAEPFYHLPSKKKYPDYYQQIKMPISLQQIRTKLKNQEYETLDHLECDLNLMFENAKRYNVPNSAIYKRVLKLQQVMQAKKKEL
Sequence of PKBbeta/AKT2(h) (substrate histone H3 full length) (P31751 whole entry): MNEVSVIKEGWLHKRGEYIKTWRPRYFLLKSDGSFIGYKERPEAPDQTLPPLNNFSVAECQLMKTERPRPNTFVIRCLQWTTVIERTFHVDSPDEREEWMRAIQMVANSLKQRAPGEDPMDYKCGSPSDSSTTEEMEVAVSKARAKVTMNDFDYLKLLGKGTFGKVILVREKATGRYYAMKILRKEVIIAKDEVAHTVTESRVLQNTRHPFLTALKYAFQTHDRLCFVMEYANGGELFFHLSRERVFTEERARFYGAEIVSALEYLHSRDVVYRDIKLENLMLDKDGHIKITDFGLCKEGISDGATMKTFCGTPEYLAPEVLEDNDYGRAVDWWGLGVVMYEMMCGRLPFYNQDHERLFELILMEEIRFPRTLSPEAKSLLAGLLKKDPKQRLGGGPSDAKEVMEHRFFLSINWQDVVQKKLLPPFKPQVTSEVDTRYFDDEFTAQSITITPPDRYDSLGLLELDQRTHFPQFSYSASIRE
Sequence of Histamine N-methyltransferase (h) (P50135 whole entry): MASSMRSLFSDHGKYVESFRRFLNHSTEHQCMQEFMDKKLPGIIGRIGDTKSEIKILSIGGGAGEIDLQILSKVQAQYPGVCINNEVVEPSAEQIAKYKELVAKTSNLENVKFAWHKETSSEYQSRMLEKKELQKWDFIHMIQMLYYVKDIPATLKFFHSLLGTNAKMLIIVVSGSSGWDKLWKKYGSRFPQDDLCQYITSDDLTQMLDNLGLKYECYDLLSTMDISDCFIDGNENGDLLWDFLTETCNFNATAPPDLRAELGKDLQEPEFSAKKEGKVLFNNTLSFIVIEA
T5 sequence (P80457 whole entry): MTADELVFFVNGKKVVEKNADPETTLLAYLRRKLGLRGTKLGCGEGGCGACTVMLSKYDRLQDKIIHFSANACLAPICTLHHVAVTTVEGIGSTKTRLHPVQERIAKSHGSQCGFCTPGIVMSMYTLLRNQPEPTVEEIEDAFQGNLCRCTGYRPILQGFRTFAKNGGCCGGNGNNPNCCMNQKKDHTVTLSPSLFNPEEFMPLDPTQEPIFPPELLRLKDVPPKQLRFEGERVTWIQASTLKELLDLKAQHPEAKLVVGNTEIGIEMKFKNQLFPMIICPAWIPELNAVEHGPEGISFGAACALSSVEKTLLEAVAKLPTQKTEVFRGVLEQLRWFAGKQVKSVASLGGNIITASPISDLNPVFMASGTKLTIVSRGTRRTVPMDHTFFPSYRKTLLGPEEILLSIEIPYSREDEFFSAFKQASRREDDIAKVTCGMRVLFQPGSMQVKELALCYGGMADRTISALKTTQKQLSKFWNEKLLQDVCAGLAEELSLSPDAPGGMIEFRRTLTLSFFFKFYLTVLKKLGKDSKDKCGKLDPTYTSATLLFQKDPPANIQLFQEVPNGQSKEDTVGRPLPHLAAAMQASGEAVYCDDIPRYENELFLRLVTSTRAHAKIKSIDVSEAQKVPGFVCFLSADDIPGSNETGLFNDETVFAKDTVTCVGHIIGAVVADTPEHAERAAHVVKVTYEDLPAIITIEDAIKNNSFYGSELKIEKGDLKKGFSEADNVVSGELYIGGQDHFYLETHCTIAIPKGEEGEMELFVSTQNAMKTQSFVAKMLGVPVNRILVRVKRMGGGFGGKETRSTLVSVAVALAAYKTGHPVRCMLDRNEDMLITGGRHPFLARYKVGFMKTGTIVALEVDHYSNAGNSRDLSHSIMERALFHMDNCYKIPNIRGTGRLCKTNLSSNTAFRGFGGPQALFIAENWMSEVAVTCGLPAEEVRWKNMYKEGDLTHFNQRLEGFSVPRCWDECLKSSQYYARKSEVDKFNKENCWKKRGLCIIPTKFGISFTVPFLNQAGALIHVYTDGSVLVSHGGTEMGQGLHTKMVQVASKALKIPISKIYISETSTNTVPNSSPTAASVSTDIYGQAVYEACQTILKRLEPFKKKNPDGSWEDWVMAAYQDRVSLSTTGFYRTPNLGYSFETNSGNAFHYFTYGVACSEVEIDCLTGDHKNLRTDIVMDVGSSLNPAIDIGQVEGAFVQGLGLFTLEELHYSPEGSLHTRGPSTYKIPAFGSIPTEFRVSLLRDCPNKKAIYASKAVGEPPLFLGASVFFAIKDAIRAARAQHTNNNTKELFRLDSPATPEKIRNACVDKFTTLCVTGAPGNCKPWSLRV

| SMILES | inhibition at 10 µM [1] | inhibition at 10 µM [2] | inhibition at 10 µM [3] | inhibition at 10 µM [4] | inhibition at 10 µM [5] | EC50 [6] | GI50 [6] | IC50 [6] | inhibition at 10 µM [7] | remaining activity at 10 µM [8] | inhibition at 10 µM [9] | inhibition at 10 µM ([10]; 10 μM) | inhibition at 10 µM [11] | inhibition at 10 µM [12] | inhibition at 10 µM [13] | inhibition at 10 µM [14] | % Control Response [15] | inhibition at 10 µM [16] | inhibition at 10 µM [17] | further results |
| --- | --- | --- | --- | --- | --- | --- | --- | --- | --- | --- | --- | --- | --- | --- | --- | --- | --- | --- | --- | --- |
| CC(C)=CCC[C@H](CO)[C@@H]1CC[C@@H](C)c2c1cc(C)c(O)c2O [Compound 1, 7,8,18-trihydroxyserrulat-14-ene] | 38% | 27% | 13% | 17% | 18% | 1.23 µM | 1.23 µM | 1.23 µM | 49% | 14% | 6% | 89% | 13% | 25% | 53% | 27% | 2% | 22% | -2% | Relative cell count (%) Mean ([6]; HCT-8, 3.00E+00 microM): 1.9%; Relative cell count (%) Mean ([6]; HCT-8, 3.00E+01 microM): 0.0%; Relative cell count (%) Mean ([6]; HCT-8, 3.01E−01 microM): 94.9%; Relative cell count (%) Mean ([6]; HCT-8, 3.01E−02 microM): 91.8%; Relative cell count (%) Mean ([6]; HCT-8, 3.02E−03 microM): 104.1%; Relative cell count (%) Mean ([6]; HCT-8, 9.49E+00 microM): 0.0%; Relative cell count (%) Mean ([6]; HCT-8, 9.51E−01 microM): 72.6%; Relative cell count (%) Mean ([6]; HCT-8, 9.52E−02 microM): 100.8%; Relative cell count (%) Mean ([6]; HCT-8, 9.53E−03 microM): 91.0%; Relative cell count (%) Mean ([6]; HCT-8, 9.55E−04 microM): 102.6%; % Inhibition of Control Specific Binding ([10]; 10 μM): significant inhibitory activity; IC50 ([10]; Table 9, inhibition/concentration-response curve): 4.5 µM |
| CC(C)=CCC[C@@H]1C(O)Oc2c(C)cc(O)c3c2[C@H]1CC[C@H]3C (some centres unmarked) [Compound 2, 5,18-epoxyserrulat-14-en-8,18-diol] | 13% | 31% | -2% | 3% | -2% | 6.27 µM | 6.24 µM | 6.27 µM | 11% | 20% | 1% | 37% | 11% | 24% | 43% | -47% | −6% | 50% | -16% | – |
| CC(C)=CCC[C@@H]1COc2c(C)cc(O)c3c2[C@H]1CC[C@H]3C [Compound 3, 5,18-epoxy-8-hydroxyserrulat-14-ene] | 6% | 23% | -2% | -1% | 18% | – | – | – | 8% | 27% | 0% | 40% | 12% | 25% | 52% | -130% | 3% | 14% | -5% | – |
| CC(C)=CCC[C@H](C)[C@@H]1CC[C@@H](C)c2c1cc(C)c(O)c2O [Compound 4, 7,8-dihydroxyserrulat-14-ene] | – | – | – | – | – | 12.9 µM | 12.9 µM | 12.9 µM | – | – | – | – | – | – | – | – | – | – | – | – |
| Nc1ncnc2c1ncn2[C@@H]1O[C@H](CSCC[C@H](N)C(=O)O)[C@@H](O)[C@H]1O [SAH] | – | – | – | – | – | – | – | – | – | – | – | – | – | – | – | – | – | – | – | IC50 ([13]; read-out: Reference IC50): 1.8 µM; IC50 ([16]; read-out: Reference IC50): 0.86 µM |
